Laboratory results: ChEMBL document CHEMBL1201861, “Genomics of Drug Sensitity in Cancer screening data, Wellcome Trust Sanger Institute”

What was measured:
Experiment in all cases: cells
BB30-HNC = assay type: functional, cell-based, Homo sapiens; settings: Homo sapiens, BB30-HNC;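 further: growth inhibition of the cultured cell line, read out by a cell viability assay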
Description: SANGER: Inhibition of human BB30-HNC cell growth in a cell viability assay.

ONS-76 = assay type: functional, cell-based, Homo sapiens; settings: Homo sapiens, ONS-76;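 further: growth inhibition of human ONS-76 cells, read out with a cell viability assay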
Description: SANGER: Inhibition of human ONS-76 cell growth in a cell viability assay.

NCI-H1650 = assay type: functional, cell-based, Homo sapiens; settings: Homo sapiens, NCI-H1650;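 further: growth inhibition of human NCI-H1650 cells measured by a cell viability assay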
Description: SANGER: Inhibition of human NCI-H1650 cell growth in a cell viability assay.

NCI-H23 = assay type: functional, cell-based, Homo sapiens; settings: Homo sapiens, NCI-H23;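 further: cell viability assay measuring growth inhibition of NCI-H23 cells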
Description: SANGER: Inhibition of human NCI-H23 cell growth in a cell viability assay.

8-MG-BA = assay type: functional, cell-based, Homo sapiens; settings: Homo sapiens, 8-MG-BA;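 further: growth inhibition of 8-MG-BA cells, read out with a cell viability assay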
Description: SANGER: Inhibition of human 8-MG-BA cell growth in a cell viability assay.

C8166 = assay type: functional, cell-based, Homo sapiens; settings: Homo sapiens, C8166;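 further: growth inhibition of human C8166 cells measured by a cell viability assay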
Description: SANGER: Inhibition of human C8166 cell growth in a cell viability assay.

LOX IMVI = assay type: functional, cell-based, Homo sapiens; settings: Homo sapiens, LOX IMVI
Description: SANGER: Inhibition of human LOXIMVI cell growth in a cell viability assay.

KURAMOCHI = assay type: functional, cell-based, Homo sapiens; settings: Homo sapiens, KURAMOCHI;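 further: growth inhibition of KURAMOCHI cells, read out with a cell viability assay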
Description: SANGER: Inhibition of human KURAMOCHI cell growth in a cell viability assay.

MV4-11 = assay type: functional, cell-based, Homo sapiens, MV-4-11; settings: Homo sapiens, MV4-11;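 further: cell viability readout measuring growth inhibition of human MV-4-11 cells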
Description: SANGER: Inhibition of human MV-4-11 cell growth in a cell viability assay.

SK-PN-DW = assay type: functional, cell-based, Homo sapiens; settings: Homo sapiens, SK-PN-DW;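 further: growth inhibition measured with a viability assay on these cells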
Description: SANGER: Inhibition of human SK-PN-DW cell growth in a cell viability assay.

HH = assay type: functional, cell-based, Homo sapiens; settings: Homo sapiens, HH
Description: SANGER: Inhibition of human HH cell growth in a cell viability assay.

MHH-PREB-1 = assay type: functional, cell-based, Homo sapiens; settings: Homo sapiens, MHH-PREB-1;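 further: cell viability assay measuring inhibition of proliferation of human MHH-PREB-1 cells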
Description: SANGER: Inhibition of human MHH-PREB-1 cell growth in a cell viability assay.

KM-H2 = assay type: functional, cell-based, Homo sapiens; settings: Homo sapiens, KM-H2;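 further: growth inhibition of KM-H2 cells, read out by a cell viability assay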
Description: SANGER: Inhibition of human KM-H2 cell growth in a cell viability assay.

DU-4475 = assay type: functional, cell-based, Homo sapiens; settings: Homo sapiens, DU-4475
Description: SANGER: Inhibition of human DU-4475 cell growth in a cell viability assay.

LS-513 = assay type: functional, cell-based, Homo sapiens; settings: Homo sapiens, LS-513
Description: SANGER: Inhibition of human LS-513 cell growth in a cell viability assay.

no-10 = assay type: functional, cell-based, Homo sapiens; settings: Homo sapiens;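 further: growth inhibition of no-10 cells, read out with a cell viability assay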
Description: SANGER: Inhibition of human no-10 cell growth in a cell viability assay.

HD-MY-Z = assay type: functional, cell-based, Homo sapiens; settings: Homo sapiens, HD-MY-Z;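 further: growth inhibition of HD-MY-Z cells, read out with a cell viability assay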
Description: SANGER: Inhibition of human HD-MY-Z cell growth in a cell viability assay.

LAMA-84 = assay type: functional, cell-based, Homo sapiens; settings: Homo sapiens, LAMA-84;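 further: growth inhibition of LAMA-84 cells, read out with a cell viability assay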
Description: SANGER: Inhibition of human LAMA-84 cell growth in a cell viability assay.

IST-MES1 = assay type: functional, cell-based, Homo sapiens; settings: Homo sapiens, IST-MES1;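 further: growth inhibition of IST-MES1 cells, measured with a cell viability assay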
Description: SANGER: Inhibition of human IST-MES1 cell growth in a cell viability assay.

MZ7-mel = assay type: functional, cell-based, Homo sapiens; settings: Homo sapiens, MZ7-mel;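 further: growth inhibition of human MZ7-mel cells, measured by a cell viability assay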
Description: SANGER: Inhibition of human MZ7-mel cell growth in a cell viability assay.

ES4 = assay type: functional, cell-based, Homo sapiens; settings: Homo sapiens, ES4;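 further: growth inhibition of human ES4 cells, read out by a cell viability assay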
Description: SANGER: Inhibition of human ES4 cell growth in a cell viability assay.

HCE-T = assay type: functional, cell-based, Homo sapiens; settings: Homo sapiens, HCE-T;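 further: cell viability assay read-out, reporting inhibition of HCE-T cell growth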
Description: SANGER: Inhibition of human HCE-T cell growth in a cell viability assay.

L-363 = assay type: functional, cell-based, Homo sapiens; settings: Homo sapiens, L-363
Description: SANGER: Inhibition of human L-363 cell growth in a cell viability assay.

JAR = assay type: functional, cell-based, Homo sapiens; settings: Homo sapiens, JAR;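 further: growth inhibition of human JAR cells determined with a cell viability assay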
Description: SANGER: Inhibition of human JAR cell growth in a cell viability assay.

A498 = assay type: functional, cell-based, Homo sapiens; settings: Homo sapiens, A498;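 further: growth inhibition of human A498 cells, read out with a cell viability assay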
Description: SANGER: Inhibition of human A498 cell growth in a cell viability assay.

NCI-H720 = assay type: functional, cell-based, Homo sapiens; settings: Homo sapiens, NCI-H720;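 further: growth inhibition of human NCI-H720 cells determined by a cell viability assay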
Description: SANGER: Inhibition of human NCI-H720 cell growth in a cell viability assay.

LB2241-RCC = assay type: functional, cell-based, Homo sapiens; settings: Homo sapiens, LB2241-RCC;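 further: cell viability assay measuring how strongly the cultured human renal carcinoma line is prevented from growing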
Description: SANGER: Inhibition of human LB2241-RCC cell growth in a cell viability assay.

NCI-H1155 = assay type: functional, cell-based, Homo sapiens; settings: Homo sapiens, NCI-H1155;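 further: cell growth inhibition measured by a viability assay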
Description: SANGER: Inhibition of human NCI-H1155 cell growth in a cell viability assay.

697 = assay type: functional, cell-based, Homo sapiens; settings: Homo sapiens
Description: SANGER: Inhibition of human 697 cell growth in a cell viability assay.

SK-UT-1 = assay type: functional, cell-based, Homo sapiens; settings: Homo sapiens, SK-UT-1;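 further: growth inhibition of SK-UT-1 cells, measured by a cell viability assay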
Description: SANGER: Inhibition of human SK-UT-1 cell growth in a cell viability assay.

MONO-MAC-6 = assay type: functional, cell-based, Homo sapiens; settings: Homo sapiens, MONO-MAC-6;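 further: cell viability assay measuring growth inhibition of human MONO-MAC-6 cells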
Description: SANGER: Inhibition of human MONO-MAC-6 cell growth in a cell viability assay.

SCC-15 = assay type: functional, cell-based, Homo sapiens; settings: Homo sapiens, SCC-15;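 further: growth inhibition of SCC-15 cells, read out with a cell viability assay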
Description: SANGER: Inhibition of human SCC-15 cell growth in a cell viability assay.

SBC-1 = assay type: functional, cell-based, Homo sapiens; settings: Homo sapiens, SBC-1;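 further: cell viability assay measuring growth inhibition of the SBC-1 cell line, IC50 being the concentration that halves growth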
Description: SANGER: Inhibition of human SBC-1 cell growth in a cell viability assay.

RPMI-8866 = assay type: functional, cell-based, Homo sapiens; settings: Homo sapiens, RPMI-8866
Description: SANGER: Inhibition of human RPMI-8866 cell growth in a cell viability assay.

CCRF-CEM = assay type: functional, cell-based, Homo sapiens; settings: Homo sapiens, CCRF-CEM;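 further: inhibition of CCRF-CEM cell growth, measured by a cell viability assay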
Description: SANGER: Inhibition of human CCRF-CEM cell growth in a cell viability assay.

HCC2157 = assay type: functional, cell-based, Homo sapiens; settings: Homo sapiens, HCC2157;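 further: growth inhibition of the cancer cell line, read out as cell viability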
Description: SANGER: Inhibition of human HCC2157 cell growth in a cell viability assay.

NCI-H226 = assay type: functional, cell-based, Homo sapiens; settings: Homo sapiens, NCI-H226;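 further: cell viability read-out used to gauge growth inhibition of the cells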
Description: SANGER: Inhibition of human NCI-H226 cell growth in a cell viability assay.

Mo = assay type: functional, cell-based, Homo sapiens; settings: Homo sapiens, Mo
Description: SANGER: Inhibition of human Mo-T cell growth in a cell viability assay.

ACN = assay type: functional, cell-based, Homo sapiens; settings: Homo sapiens, ACN;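 further: growth inhibition of the human ACN cell line, read out via cell viability testing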
Description: SANGER: Inhibition of human ACN cell growth in a cell viability assay.

DOHH-2 = assay type: functional, cell-based, Homo sapiens; settings: Homo sapiens, DOHH-2;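 further: growth inhibition of human DOHH-2 cells, read out with a cell viability assay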
Description: SANGER: Inhibition of human DOHH-2 cell growth in a cell viability assay.

SNU-5 = assay type: functional, cell-based, Homo sapiens; settings: Homo sapiens, SNU-5;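 further: cell viability readout used to measure growth inhibition in human NCI-SNU-5 cells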
Description: SANGER: Inhibition of human NCI-SNU-5 cell growth in a cell viability assay.

SK-N-FI = assay type: functional, cell-based, Homo sapiens; settings: Homo sapiens, SK-N-FI;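 further: cell viability assay measuring growth inhibition of human SK-N-FI cells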
Description: SANGER: Inhibition of human SK-N-FI cell growth in a cell viability assay.

OS-RC-2 = assay type: functional, cell-based, Homo sapiens; settings: Homo sapiens, OS-RC-2;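 further: growth inhibition of human OS-RC-2 cells, measured by a cell viability assay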
Description: SANGER: Inhibition of human OS-RC-2 cell growth in a cell viability assay.

NH-12 = assay type: functional, cell-based, Homo sapiens; settings: Homo sapiens, NH-12;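 further: growth inhibition of NH-12 cells, read out with a cell viability assay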
Description: SANGER: Inhibition of human NH-12 cell growth in a cell viability assay.

IA-LM = assay type: functional, cell-based; settings: Homo sapiens;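 further: cell viability assay measuring growth inhibition of human IA-LM cells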
Description: SANGER: Inhibition of human IA-LM cell growth in a cell viability assay.

JVM-2 = assay type: functional, cell-based, Homo sapiens; settings: Homo sapiens, JVM-2;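 further: growth inhibition of JVM-2 cells determined by a cell viability assay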
Description: SANGER: Inhibition of human JVM-2 cell growth in a cell viability assay.

IST-SL1 = assay type: functional, cell-based, Homo sapiens; settings: Homo sapiens, IST-SL1;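 further: growth inhibition of human IST-SL1 cells, read out with a cell viability assay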
Description: SANGER: Inhibition of human IST-SL1 cell growth in a cell viability assay.

NCI-N87 = assay type: functional, cell-based; settings: Homo sapiens;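 further: growth inhibition of human NCI-N87 cells, read out with a cell viability assay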
Description: SANGER: Inhibition of human NCI-N87 cell growth in a cell viability assay.

DoTc2-4510 = assay type: functional, cell-based; settings: Homo sapiens
NCI-H1299 = assay type: functional, cell-based; settings: Homo sapiens;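 further: growth inhibition of human NCI-H1299 cells, read out by a cell viability assay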
Description: SANGER: Inhibition of human NCI-H1299 cell growth in a cell viability assay.

Compound: COc1ccc(N(C(=O)Oc2c(C)cccc2C)c2ccnc(Nc3ccc(N4CCN(C)CC4)cc3)n2)c(OC)c1
- IC50 (BB30-HNC): 1.85 µM
- IC50 (ONS-76): > 5.12 µM
- IC50 (NCI-H1650): > 5.12 µM
- IC50 (NCI-H23): > 5.12 µM
- IC50 (8-MG-BA): > 5.12 µM
- IC50 (C8166): > 5.12 µM
- IC50 (LOX IMVI): > 5.12 µM
- IC50 (KURAMOCHI): 2.24 µM
- IC50 (MV4-11): > 5.12 µM
- IC50 (SK-PN-DW): > 5.12 µM
- IC50 (HH): > 5.12 µM
- IC50 (MHH-PREB-1): > 5.12 µM
- IC50 (KM-H2): > 5.12 µM
- IC50 (DU-4475): > 5.12 µM
- IC50 (LS-513): > 5.12 µM
- IC50 (no-10): > 5.12 µM
- IC50 (HD-MY-Z): > 5.12 µM
- IC50 (LAMA-84): < 0.02 µM
- IC50 (IST-MES1): 0.357 µM
- IC50 (MZ7-mel): 5.09 µM
- IC50 (ES4): > 5.12 µM
- IC50 (HCE-T): > 5.12 µM
- IC50 (L-363): > 5.12 µM
- IC50 (JAR): > 5.12 µM
- IC50 (A498): 0.189 µM
- IC50 (NCI-H720): > 5.12 µM
- IC50 (LB2241-RCC): > 5.12 µM
- IC50 (NCI-H1155): > 5.12 µM
- IC50 697: 3.4 µM
- IC50 (SK-UT-1): > 5.12 µM
- IC50 (MONO-MAC-6): > 5.12 µM
- IC50 (SCC-15): > 5.12 µM
- IC50 (SBC-1): > 5.12 µM
- IC50 (RPMI-8866): > 5.12 µM
- IC50 (CCRF-CEM): > 5.12 µM
- IC50 (HCC2157): > 5.12 µM
- IC50 (NCI-H226): > 5.12 µM
- IC50 (Mo): > 5.12 µM
- IC50 (ACN): 4.23 µM
- IC50 (DOHH-2): < 0.02 µM
- IC50 (SNU-5): > 5.12 µM
- IC50 (SK-N-FI): > 5.12 µM
- IC50 (OS-RC-2): 0.35 µM
- IC50 (NH-12): > 5.12 µM
- IC50 (IA-LM): > 5.12 µM
- IC50 (JVM-2): > 5.12 µM
- IC50 (IST-SL1): > 5.12 µM

Compound: CC1(C)CCC(c2ccc(Cl)cc2)=C(CN2CCN(c3ccc(C(=O)NS(=O)(=O)c4ccc(N[C@H](CCN5CCOCC5)CSc5ccccc5)c(S(=O)(=O)C(F)(F)F)c4)cc3)CC2)C1 [NAVITOCLAX]
- IC50 (BB30-HNC): > 2 µM
- IC50 (ONS-76): > 2 µM
- IC50 (NCI-H1650): > 2 µM
- IC50 (NCI-H23): > 2 µM
- IC50 (8-MG-BA): > 2 µM
- IC50 (C8166): > 2 µM
- IC50 (LOX IMVI): > 2 µM
- IC50 (KURAMOCHI): > 2 µM
- IC50 (MV4-11): 0.0159 µM
- IC50 (NCI-N87): > 2 µM
- IC50 (SK-PN-DW): > 2 µM
- IC50 (HH): > 2 µM
- IC50 (MHH-PREB-1): > 2 µM
- IC50 (KM-H2): > 2 µM
- IC50 (DU-4475): 0.654 µM
- IC50 (LS-513): > 2 µM
- IC50 (no-10): > 2 µM
- IC50 (HD-MY-Z): > 2 µM
- IC50 (LAMA-84): 0.592 µM
- IC50 (IST-MES1): > 2 µM
- IC50 (MZ7-mel): > 2 µM
- IC50 (ES4): 1.35 µM
- IC50 (DoTc2-4510): > 2 µM
- IC50 (HCE-T): > 2 µM
- IC50 (NCI-H1299): > 2 µM
- IC50 (L-363): > 2 µM
- IC50 (JAR): > 2 µM
- IC50 (A498): > 2 µM
- IC50 (NCI-H720): 0.0401 µM
- IC50 (LB2241-RCC): > 2 µM
- IC50 (NCI-H1155): > 2 µM
- IC50 697: 0.108 µM
- IC50 (SK-UT-1): > 2 µM
- IC50 (SCC-15): > 2 µM
- IC50 (SBC-1): 1.19 µM
- IC50 (RPMI-8866): > 2 µM
- IC50 (CCRF-CEM): 0.335 µM
- IC50 (HCC2157): 1.19 µM
- IC50 (NCI-H226): > 2 µM
- IC50 (Mo): > 2 µM
- IC50 (ACN): > 2 µM
- IC50 (DOHH-2): 0.41 µM
- IC50 (SNU-5): > 2 µM
- IC50 (SK-N-FI): > 2 µM
- IC50 (OS-RC-2): > 2 µM
- IC50 (NH-12): 0.107 µM
- IC50 (IA-LM): > 2 µM
- IC50 (JVM-2): > 2 µM
- IC50 (IST-SL1): 0.353 µM

Compound: Cc1ccc(-n2nc(C(C)(C)C)cc2NC(=O)Nc2ccc(OCCN3CCOCC3)c3ccccc23)cc1 [DORAMAPIMOD]
- IC50 (BB30-HNC): > 10 µM
- IC50 (ONS-76): > 10 µM
- IC50 (NCI-H1650): > 10 µM
- IC50 (NCI-H23): > 10 µM
- IC50 (8-MG-BA): > 10 µM
- IC50 (C8166): > 10 µM
- IC50 (LOX IMVI): > 10 µM
- IC50 (KURAMOCHI): > 10 µM
- IC50 (MV4-11): > 10 µM
- IC50 (NCI-N87): > 10 µM
- IC50 (SK-PN-DW): > 10 µM
- IC50 (HH): > 10 µM
- IC50 (MHH-PREB-1): > 10 µM
- IC50 (KM-H2): > 10 µM
- IC50 (DU-4475): > 10 µM
- IC50 (LS-513): > 10 µM
- IC50 (no-10): > 10 µM
- IC50 (HD-MY-Z): > 10 µM
- IC50 (LAMA-84): > 10 µM
- IC50 (IST-MES1): 7.96 µM
- IC50 (MZ7-mel): > 10 µM
- IC50 (ES4): > 10 µM
- IC50 (DoTc2-4510): > 10 µM
- IC50 (HCE-T): > 10 µM
- IC50 (NCI-H1299): > 10 µM
- IC50 (L-363): > 10 µM
- IC50 (JAR): > 10 µM
- IC50 (A498): > 10 µM
- IC50 (NCI-H720): > 10 µM
- IC50 (LB2241-RCC): > 10 µM
- IC50 (NCI-H1155): > 10 µM
- IC50 697: > 10 µM
- IC50 (SK-UT-1): > 10 µM
- IC50 (SCC-15): > 10 µM
- IC50 (SBC-1): > 10 µM
- IC50 (RPMI-8866): > 10 µM
- IC50 (CCRF-CEM): > 10 µM
- IC50 (HCC2157): > 10 µM
- IC50 (NCI-H226): > 10 µM
- IC50 (Mo): > 10 µM
- IC50 (ACN): > 10 µM
- IC50 (DOHH-2): > 10 µM
- IC50 (SNU-5): > 10 µM
- IC50 (SK-N-FI): > 10 µM
- IC50 (OS-RC-2): > 10 µM
- IC50 (NH-12): > 10 µM
- IC50 (IA-LM): > 10 µM
- IC50 (JVM-2): > 10 µM
- IC50 (IST-SL1): > 10 µM
